The results in this text go back to patent US20210205277A1, “MODULATORS OF THE INTEGRATED STRESS PATHWAY” (Calico Life Sciences LLC, priority 2017, published 2021).

The experiment concerns HEK293T cells carrying the ATF4 luciferase reporter. As to the kind of experiment: ATF4-Luc assay (in vitro model of VWMD). The experiment is classed as cell-based. To be noted: Homo sapiens, HEK-293T; HEK293T cells with ATF4 5'-UTR firefly luciferase reporter; 1 μg/mL tunicamycin; 7 hours; One Glo luminescence. How it is done: In order to test exemplary compounds of the invention in a cellular context, a stable VWMD cell line was first constructed. The ATF4 reporter was prepared by fusing the human full-length ATF4 5′-UTR (NCBI Accession No. BC022088.2) in front of the firefly luciferase (FLuc) coding sequence lacking the initiator methionine as described in Sidrauski et al (eLife 2013). The construct was used to produce recombinant retroviruses using standard methods and the resulting viral supernatant was used to transduce HEK293T cells, which were then subsequently selected with puromycin to generate a stable cell line.
HEK293T cells carrying the ATF4 luciferase reporter were plated on polylysine coated 384-well plates (Greiner Bio-one) at 30,000 cells per well. Cells were treated the next day with 1 μg/mL tunicamycin and 200 nM of a compound of Formula (I) for 7 hours. Luminescence was measured using One Glo (Promega) as specified by the manufacturer. Cells were maintained in DMEM with L-glutamine supplemented with 10% heat-inactivated FBS (Gibco) and Antibiotic-Antimycotic solution (Gibco).
Table 2 below summarizes the EC50 data obtained using the ATF4-Luc assay for exemplary compounds of the invention.
Usually EC50 stands for the concentration needed to bring the measured effect to its halfway point. For the compound `O=C(COc1ccc(Cl)c(F)c1)NC12CC(c3ncc(-c4ccc(Cl)c(F)c4)[nH]3)(C1)C2` [Compound 116, 2-(4-chloro-3-fluorophenoxy)-N-{3-[5-(4-chloro-3-fluorophenyl)-1H-imidazol-2-yl]bicyclo[1.1.1]pentan-1-yl}acetamide], the 50% effective concentration (EC50) was under 10 nM.

Consider `O=C(COc1ccc(Cl)c(F)c1)NC12CCC(c3nnc(-c4ccc(Cl)c(F)c4)o3)(CC1)C(O)C2` (stereo not shown) [Compound 107, 2-(4-chloro-3-fluorophenoxy)-N-{4-[5-(4-chloro-3-fluorophenyl)-1,3,4-oxadiazol-2-yl]-3-hydroxybicyclo[2.2.2]octan-1-yl}acetamide], for which the EC50 was under 10 nM. The value for `O=C(COc1ccc(Cl)c(F)c1)NC12CCC(c3nc(-c4ccc(Cl)c(F)c4)no3)(CC1)CC2=O` [Compound 111, 2-(4-chloro-3-fluorophenoxy)-N-{4-[3-(4-chloro-3-fluorophenyl)-1,2,4-oxadiazol-5-yl]-2-oxobicyclo[2.2.2]octan-1-yl}acetamide] was over 2000 nM. The value for `Cn1c(-c2ccc(Cl)c(F)c2)cnc1C12CC(NC(=O)COc3ccc(Cl)c(F)c3)(C1)C2` [Compound 117, 2-(4-chloro-3-fluorophenoxy)-N-{3-[5-(4-chloro-3-fluorophenyl)-1-methyl-1H-imidazol-2-yl]bicyclo[1.1.1]pentan-1-yl}acetamide] was 10 to 50 nM; that for `O=C(COc1ccc(Cl)c(F)c1)NC12CCC(c3nnc(-c4ccc(Cl)c(F)c4)o3)(CC1)C[C@@H]2O` (single isomer, unassigned) [Compound 123] was under 10 nM; that for `O=C(COc1ccc(Cl)c(F)c1)NC12CCC(c3nnc(-c4ccc(Cl)c(F)c4)o3)(CC1)C[C@H]2O` (single isomer, unassigned) [Compound 122] was under 10 nM. The value for `O=C(COc1ccc(Cl)c(F)c1)NC12CCC(c3nnc(-c4ccc(Cl)c(F)c4)o3)(CC1)[C@H](O)C2` (single isomer, unassigned) [Compound 101] was under 10 nM; that for `O=C(COc1ccc(Cl)c(F)c1)NC12CCC(c3nc(-c4ccc(Cl)c(F)c4)no3)(CC1)[C@@H](O)C2` [Compound 104, 2-(4-chloro-3-fluorophenoxy)-N-{(3S)-4-[3-(4-chloro-3-fluorophenyl)-1,2,4-oxadiazol-5-yl]-3-hydroxybicyclo[2.2.2]octan-1-yl}acetamide] was under 10 nM; that for `O=C(COc1ccc(Cl)c(F)c1)NC12CCC(c3nnc(-c4ccc(Cl)c(F)c4)o3)(CC1)CC2O` (stereo not shown) [Compound 108, 2-(4-chloro-3-fluorophenoxy)-N-{4-[5-(4-chloro-3-fluorophenyl)-1,3,4-oxadiazol-2-yl]-2-hydroxybicyclo[2.2.2]octan-1-yl}acetamide] was under 10 nM. On to `O=C(COc1ccc(Cl)c(F)c1)NC12CCC(c3ncc(-c4ccc(Cl)cc4)[nH]3)(CC1)[C@@H](O)C2` [Compound 110, 2-(4-chloro-3-fluorophenoxy)-N-{(3S)-4-[5-(4-chlorophenyl)-1H-imidazol-2-yl]-3-hydroxybicyclo[2.2.2]octan-1-yl}acetamide], for which the EC50 is under 10 nM.

On to `O=C(COc1ccc(Cl)c(F)c1)NC12CCC(c3ncc(-c4ccc(Cl)cc4)[nH]3)(CC1)[C@H](O)C2` [Compound 118, 2-(4-chloro-3-fluorophenoxy)-N-{(3R)-4-[5-(4-chlorophenyl)-1H-imidazol-2-yl]-3-hydroxybicyclo[2.2.2]octan-1-yl}acetamide], for which the concentration giving a half-maximal response (EC50) was under 10 nM. As for `O=C(COc1ccc(Cl)c(F)c1)NC12CCC(c3nc(-c4ccc(Cl)c(F)c4)no3)(CC1)C(=O)C2` [Compound 105, 2-(4-chloro-3-fluorophenoxy)-N-{4-[3-(4-chloro-3-fluorophenyl)-1,2,4-oxadiazol-5-yl]-3-oxobicyclo[2.2.2]octan-1-yl}acetamide], the EC50 is under 10 nM. The same measure for `O=C(COc1ccc(Cl)c(F)c1)NC12CCC(n3ccc(-c4ccc(Cl)cc4)c3)(CC1)CC2O` (stereo not shown) [Compound 109, 2-(4-chloro-3-fluorophenoxy)-N-{4-[3-(4-chlorophenyl)-1H-pyrrol-1-yl]-2-hydroxybicyclo[2.2.2]octan-1-yl}acetamide]: 10 to 50 nM. Turning to `O=C(NC12CCC(c3nc(-c4cccc(F)c4)no3)(CC1)C(O)C2)c1cc(C(F)F)no1` (stereo not shown) [Compound 120, 3-(difluoromethyl)-N-{4-[3-(3-fluorophenyl)-1,2,4-oxadiazol-5-yl]-3-hydroxybicyclo[2.2.2]octan-1-yl}-1,2-oxazole-5-carboxamide], the EC50 was over 2000 nM.

Take `O=C(COc1ccc(Cl)c(F)c1)NC12CCC(n3ccc(-c4ccc(Cl)c(F)c4)c3)(CC1)C[C@@H]2O` [Compound 113, 2-(4-chloro-3-fluorophenoxy)-N-{(2S)-4-[3-(4-chloro-3-fluorophenyl)-1H-pyrrol-1-yl]-2-hydroxybicyclo[2.2.2]octan-1-yl}acetamide]: the EC50 was under 10 nM. Turning to `O=C(COc1ccc(Cl)c(F)c1)NC12CCC(c3ncc(-c4ccc(Cl)cc4)o3)(CC1)[C@H](O)C2` [Compound 114, 2-(4-chloro-3-fluorophenoxy)-N-{(3R)-4-[5-(4-chlorophenyl)-1,3-oxazol-2-yl]-3-hydroxybicyclo[2.2.2]octan-1-yl}acetamide], the EC50 is under 10 nM. The same measure for `COc1ncc(-c2nnc(C34CCC(NC(=O)COc5ccc(Cl)c(F)c5)(CC3)C(O)C4)o2)cn1` (stereo not shown) [Compound 124, 2-(4-chloro-3-fluorophenoxy)-N-{2-hydroxy-4-[5-(2-methoxypyrimidin-5-yl)-1,3,4-oxadiazol-2-yl]bicyclo[2.2.2]octan-1-yl}acetamide]: over 2000 nM. Turning to `O=C(COc1ccc(Cl)c(F)c1)NC12CCC(c3nc(-c4ccc(Cl)c(F)c4)no3)(CC1)[C@H](O)C2` [Compound 103, 2-(4-chloro-3-fluorophenoxy)-N-{(3R)-4-[3-(4-chloro-3-fluorophenyl)-1,2,4-oxadiazol-5-yl]-3-hydroxybicyclo[2.2.2]octan-1-yl}acetamide], the EC50 lay within 10 to 50 nM. The same measure for `O=C(NC12CCC(c3nc(-c4ccc(Cl)c(F)c4)no3)(CC1)C(O)C2)c1cc(C(F)F)no1` (stereo not shown) [Compound 121, N-{4-[3-(4-chloro-3-fluorophenyl)-1,2,4-oxadiazol-5-yl]-3-hydroxybicyclo[2.2.2]octan-1-yl}-3-(difluoromethyl)-1,2-oxazole-5-carboxamide]: 500 to 2000 nM; for `O=C(COc1ccc(Cl)c(F)c1)NC12CCC(c3nnc(-c4ccc(Cl)c(F)c4)o3)(CC1)C(=O)C2` [Compound 106, 2-(4-chloro-3-fluorophenoxy)-N-{4-[5-(4-chloro-3-fluorophenyl)-1,3,4-oxadiazol-2-yl]-3-oxobicyclo[2.2.2]octan-1-yl}acetamide]: under 10 nM. The same measure for `O=C(COc1ccc(Cl)c(F)c1)NC12CCC(c3ncc(-c4ccc(Cl)c(F)c4)[nH]3)(CC1)[C@@H](O)C2` [Compound 119, 2-(4-chloro-3-fluorophenoxy)-N-{(3S)-4-[5-(4-chloro-3-fluorophenyl)-1H-imidazol-2-yl]-3-hydroxybicyclo[2.2.2]octan-1-yl}acetamide]: under 10 nM; for `O=C(COc1ccc(Cl)c(Cl)c1)NC12CCC(n3ccc(-c4ccc(Cl)c(F)c4)c3)(CC1)C[C@@H]2O` [Compound 115, N-{(2S)-4-[3-(4-chloro-3-fluorophenyl)-1H-pyrrol-1-yl]-2-hydroxybicyclo[2.2.2]octan-1-yl}-2-(3,4-dichlorophenoxy)acetamide]: under 10 nM.

In the case of `O=C(COc1ccc(Cl)c(F)c1)NC12CCC(n3ccc(-c4ccc(Cl)c(F)c4)c3)(CC1)CC2O` (stereo not shown) [Compound 102, 2-(4-chloro-3-fluorophenoxy)-N-{4-[3-(4-chloro-3-fluorophenyl)-1H-pyrrol-1-yl]-2-hydroxybicyclo[2.2.2]octan-1-yl}acetamide], the EC50 is under 10 nM.

`O=C(COc1ccc(Cl)c(F)c1)NC12CCC(c3nnc(-c4ccc(Cl)c(F)c4)o3)(CC1)[C@@H](O)C2` [Compound 100, 2-(4-chloro-3-fluorophenoxy)-N-{(3S)-4-[5-(4-chloro-3-fluorophenyl)-1,3,4-oxadiazol-2-yl]-3-hydroxybicyclo[2.2.2]octan-1-yl}acetamide]: the EC50 was under 10 nM. For `O=C(COc1ccc(Cl)c(F)c1)NC12CCC(n3nccc3-c3ccc(Cl)c(F)c3)(CC1)C[C@@H]2O` [Compound 112, 2-(4-chloro-3-fluorophenoxy)-N-{(2S)-4-[5-(4-chloro-3-fluorophenyl)-1H-pyrazol-1-yl]-2-hydroxybicyclo[2.2.2]octan-1-yl}acetamide], the EC50 lay in the range of 500 to 2000 nM.
